Assays:
jejunum = experiment: Jejunal RNAseq (transcriptomics), Gene Ontology enrichment analysis of differentially expressed genes, 2′FL versus placebo; format: in vivo, Bos taurus (calves); details: day 71 (W11)
Experimental: One healthy and middle weight calf of one pen per group was picked for euthanization in the slaughterhouse at day 71 (W11) (8 calves in total, 4 per group). A 20 cm segment of jejunum without Peyer's patch was excised and washed three times with physiological serum using a 30 ml syringe. A small segment (2-3 mm) was further excised and stored in 2 ml RNA protect tissue reagent (Qiagen) containing RNA preservation buffer for transportation at room temperature before long-term storage at −80° C.
Jejunal specimens stored in RNA protect tissue reagent were excised further to transfer 50 mg tissue into 2 ml tubes. The tissues were disrupted and homogenized using one stainless steel bead 5 mm in 900 μl QIAzol lysis reagent (QIAgen) in combination with a FASTPREP® 24 device. The homogenates were further manipulated according to the guidance of the manufacturer of the RNeasy plus universal tissue mini kit (QIAgen). The total purified RNA were eluted in 40 μl and quickly checked for the concentration and quality using Nanodrop (Implen NANOPHOTOMETER®) before storage at −80° C.
Total RNA was submitted to Azenta (Genewiz, Germany) to perform RNA sequencing. The total RNA was checked again for quality and concentration using Qubit and fragment analyzer before the mRNA were selected for polyA library preparation and sequenced using the ILLUMINA® Novaseq™ 2×150 bp technology platform guaranteed 20 million paired-end reads per samples (40 million reads).
RNA sequencing reads were quality-checked with fastqc (bioinformatics.babraham.ac.uk/projects/fastqc/) and trimmed with Trimmomatic (Bolger et al., 2014, Bioinformatics 30 (15): p. 2114-2120). Reads were aligned to the cow reference (Bos_taurus_UMD_3.1.1) using the genome alignment method in STAR (Dobin et al., 2013, Bioinformatics 29 (1): p. 15-21); Gene expression was quantified by featureCounts (Liao et al., 2014, Bioinformatics 30 (7): p. 923-930) and differential expression analysis was performed using DEseq2 (Love et al., 2014, Genome Biol. 15 (2): 550). Enrichment analysis of differential expressed was done in clusterProfiler (Wu et al., 2021, Innovation 2 (3): 100141) based on Gene Ontology.

diarrhea = experiment: Diarrhea incidence in calves fed 2′FL-supplemented calf milk replacer versus placebo (standard CMR); format: in vivo, Holstein Friesian calves (bovine); details: for Diarrhea cases: group B, 0.005% drywt. 2′FL in CMR
Experimental: (§1) Holstein Friesian calves (2-3 week-old, 95% male) were transported from different farms to the experimental facility of Denkavit (Voorthuizen, The Netherlands) where the animals were reared. The experiment was performed in two trial rounds.
(§2) The calves were randomly and gender-equally divided in two groups based on experimental calf milk replacer: group A (placebo-standard calf milk replacer (CMR) powder of the farm) and group B (standard CMR powder supplemented with 0.005% drywt. 2′-fucosyllactose (2′FL, see Example 1). The calf milk replacer was administered as a liquid to the calves (water was added to the CMR powder to obtain 150 gram CMR powder per liter liquid CMR). Each group involved […], assigned into 12 rows. Each row contained 4 pens, where six calves were living in one pen.
(§3) 2′-fucosyllactose was supplied to calves via CMR (major components are presented in Table 1) during the whole trial, lasting 6 months. The Start CMR was given from arrival till week 6, which then switched to the Gold Alfa CMR up to day 136. The remaining time calves were fed with the Omega CMR. Solid feed (concentrates) was introduced gradually from arrival, starting with the Avance Alfa up till day 126, then replaced by the Avance Omega till the end of the experiment. Feed was provided ad libitum to calves twice a day (morning and evening) and were recorded daily based on rows (concentrates, straw, corn silage) or groups (CMR) consumption.
The calves were randomly and gender-equally divided in two groups based on experimental calf milk replacer (CMR): group A (placebo-standard CMR powder of the farm), group B (standard CMR powder supplemented with 0.005% drywt. 2′FL). […]
Starting from the day of arrival, calves received standard calf milk replacer (CMR) during a period of 9 weeks. […] Feed were provided ad libitum to calves twice a day (morning and evening) and were recorded daily based on rows (concentrates, straw, corn silage) or groups (CMR) consumption.
Calves were followed up by the farm staffs since arrival till the end of the trial. Fecal consistency in scale 1-4 (Larson et al., 1977, J. Dairy Science, 60 (6): p. 989-991) was recorded daily for the first ten days since arrival. […] Disease incidences and medicinal usage based on individual treatments were recorded to compare between treatment groups. Live weight of the animals was monitored at arrival (d1), two weeks (W2), six weeks (W6), ten weeks (W10) and 12 weeks (W12) and 17 weeks (W17) since arrival. […]
(§4) Odds ratios and risk ratios of the pneumonia and diarrhea incidence were evaluated with the epitools R package using the Wald test (cran.r-project.org/web/packages/epitools/epitools.pdf). […]

acute pneumonia = experiment: Acute pneumonia incidence in calves fed 2′FL-supplemented calf milk replacer versus placebo (standard CMR); format: in vivo, Holstein Friesian calves (bovine)
Experimental: as §1, §2, §3
(§5) The calves were randomly and gender-equally divided in two groups based on experimental calf milk replacer (CMR): group A (placebo-standard CMR powder of the farm), group B (standard CMR powder supplemented with 0.005% drywt. 2′FL). The calf milk replacer was administered as a liquid to the calves (water was added to the CMR powder to obtain 150 gram CMR powder per liter liquid CMR). Each group involved 100 calves, assigned into four rows (25 calves per row) of two compartment blocks. Each row contained five pens, where four to six calves were living in one pen.
(§6) Starting from the day of arrival, calves received standard calf milk replacer (CMR) during a period of 9 weeks. Group A only received the CMR, while the CMR supplied to groups B was supplemented with 0.005% drywt. 2′FL. Calf starter (concentrates) and straw were introduced gradually from day 6 till the end of the experiment (12 weeks) while calves had access to corn silage at weeks 11 and 12. Feed were provided ad libitum to calves twice a day (morning and evening) and were recorded daily based on rows (concentrates, straw, corn silage) or groups (CMR) consumption.
Calves were followed up by the farm staffs since arrival till the end of the trial. Fecal consistency in scale 1-4 (Larson et al., 1977, J. Dairy Science, 60 (6): p. 989-991) was recorded daily for the first ten days since arrival. Number of mortalities and signs of adverse effects were registered daily. The animals were treated prophylactically or metaphylactically (herd treatment) with 1 g oxytetracycline 100% (at day 4), 0.5 g Doxylin 50% WSP and 0.8 g bromhexine 2% (at day 13), and 3.1 ml Tilmicosol 250 mg/ml (at day 24) to prevent and/or treat acute lung inflammation. Individual treatments were followed by remark of the farm staffs and diagnostic of farm veterinary practitioners. Disease incidences and medicinal usage based on individual treatments were recorded to compare between treatment groups. Live weight of the animals was monitored at arrival (d1), two weeks (W2), six weeks (W6), ten weeks (W10) and 12 weeks (W12) and 17 weeks (W17) since arrival. Feed conversion ratio (FCR) of each period was computed based on the input of daily weight gain and daily feed intake. […]

[1] = Mortality and adverse effects in calves (health and safety observation); format: in vivo, Holstein Friesian calves (bovine)
Experimental: as §1, §2, §3, §5, §6
Calves were followed up by the farm staffs since arrival till the end of the trial. Fecal consistency in scale 1-4 (Larson et al., 1977, J. Dairy Science, 60 (6): p. 989-991) was recorded daily for the first ten days since arrival. Number of mortalities and signs of adverse effects were registered daily. […] Disease incidences and medicinal usage based on individual treatments were recorded to compare between treatment groups. Live weight of the animals was monitored at arrival (d1), two weeks (W2), six weeks (W6), ten weeks (W10) and 12 weeks (W12) and 17 weeks (W17) since arrival. […]
as §4

## 2′-fucosyllactose [2′FL]
jejunum; 4 calves per group
  Immune responses versus placebo (enrichment analysis): enhanced immune responses in several ways (T cell activation, cell differentiation, cell-cell adhesion, adaptive immune response)
jejunum; group B versus placebo
  p. adjust, up-regulated gene ontology process ADAPTIVE_IMMUNE_RESPONSE: 4.15E−06
  p. adjust, up-regulated gene ontology process ADAPTIVE_IMMUNE_RESPONSE_BASED_ON_SOMATIC_RECOMBINATION_OF_IMMUNE_RECEPTORS_BUILT_FROM_IMMUNOGLOBULIN_SUPERFAMILY_DOMAINS: 0.00573
  p. adjust, up-regulated gene ontology process EXTERNAL_SIDE_OF_PLASMA_MEMBRANE: 0.000673
  p. adjust, up-regulated gene ontology process HETEROTYPIC_CELL_CELL_ADHESION: 0.003478
  p. adjust, up-regulated gene ontology process LEUKOCYTE_DIFFERENTIATION: 0.003462
  p. adjust, up-regulated gene ontology process LYMPHOCYTE_MEDIATED_IMMUNITY: 0.003478
  p. adjust, up-regulated gene ontology process MONONUCLEAR_CELL_DIFFERENTIATION: 0.000274
  p. adjust, up-regulated gene ontology process NEGATIVE_REGULATION_OF_ADAPTIVE_IMMUNE_RESPONSE: 0.002368
  p. adjust, up-regulated gene ontology process NEGATIVE_REGULATION_OF_IMMUNE_SYSTEM_PROCESS: 0.001169
  p. adjust, up-regulated gene ontology process NEGATIVE_REGULATION_OF_LEUKOCYTE_MEDIATED_IMMUNITY: 0.002368
  p. adjust, up-regulated gene ontology process NEGATIVE_REGULATION_OF_LYMPHOCYTE_MEDIATED_IMMUNITY: 0.00552
  p. adjust, up-regulated gene ontology process POSITIVE_THYMIC_T_CELL_SELECTION: 0.00573
  p. adjust, up-regulated gene ontology process POSITIVE_T_CELL_SELECTION: 0.003206
  p. adjust, up-regulated gene ontology process REGULATION_OF_ADAPTIVE_IMMUNE_RESPONSE: 0.003206
  p. adjust, up-regulated gene ontology process REGULATION_OF_LEUKOCYTE_MEDIATED_IMMUNITY: 0.003478
  p. adjust, up-regulated gene ontology process REGULATION_OF_T_CELL_ACTIVATION: 0.003668
  p. adjust, up-regulated gene ontology process T_CELL_ACTIVATION: 9.06E−06
  p. adjust, up-regulated gene ontology process T_CELL_DIFFERENTIATION: 0.000662
  p. adjust, up-regulated gene ontology process T_CELL_PROLIFERATION: 0.002368
  p. adjust, up-regulated gene ontology process T_CELL_RECEPTOR_COMPLEX: 0.000274
diarrhea; round 1 (veal calf)
  Relative risk of getting diarrhea, group B versus placebo: 0.71
diarrhea; round 1 (veal calf), out of 290 calves, placebo 51 cases
  Diarrhea cases: 36 cases
diarrhea; round 1 (veal calf), standard CMR (placebo) versus 2′FL supplemented CMR
  Odds ratio associated with diarrhea: 1.51
diarrhea; round 2 (rearing calf), 100 calves per group, placebo 1 case
  Diarrhea cases: 0 cases
Acute pneumonia; round 1 (veal calf), 0.005% drywt. 2′FL in CMR
  Relative risk of getting acute pneumonia, group B versus placebo: 0.86
Acute pneumonia; round 1 (veal calf), group B, 0.005% drywt. 2′FL in CMR, 6 months, out of 290 calves, placebo 111 cases
  Acute pneumonia cases: 96 cases
Acute pneumonia; round 2 (rearing calf), 0.005% drywt. 2′FL in CMR
  Relative risk of getting acute pneumonia, group B versus placebo: 0.63
Acute pneumonia; round 2 (rearing calf), group B, 0.005% drywt. 2′FL in CMR for 9 weeks, 12-week trial, 100 calves per group, placebo 27 cases
  Acute pneumonia cases: 17 cases
Acute pneumonia; round 2 (rearing calf), group B, placebo 27%
  Acute pneumonia cases, share of calves: 17%
Acute pneumonia; rounds 1 and 2 integrated, standard CMR (placebo) versus 2′FL supplemented CMR, Mantel-Haenszel
  Common odds ratio of acute pneumonia: 1.35
[1]; registered by the farm staffs, target animals (calves), both rounds
  Adverse effects: no adverse effects
[1]; round 1, 6 months, group B (2′FL), placebo 4.14%, 262800 min
  Mortality: 3.1%
[1]; round 1, 6 months, group B (2′FL), placebo 12 (4.14%)
  Calves dead: 9 calves
[1]; round 1, 6 months, Kaplan-Meier test
  Mortality, difference between groups: no significant difference in mortality between the experimental groups
[1]; round 2, 12 weeks, 7/400 calves died in all groups
  Mortality, difference between groups: no significant difference in mortality between the different groups

— patent US20260294947A1, “FUCOSYLATED MAMMALIAN MILK OLIGOSACCHARIDE FOR USE IN THE PREVENTION OR TREATMENT OF SHIPPING FEVER” (Inbiose N.V., priority 2023, published 2026)
